Counter-ions that a name gives are not always drawn.
Assays:
[1] = tested on: IFN production by activated PBMCs; assay: IFN production by R848-activated PBMCs from healthy donors, twINNE reporter cell line; format: cell-based, human; details: Homo sapiens, PBMC, means of two results over 2 healthy donors, R848 5 μg/mL, IT1t: mean over all experiments, read-out: IC50 of anti-inflammatory activity (IFN production)
Protocol: 2) The blood from healthy donors was also obtained from “Etablissement Français du Sang” (convention #19/EFS/029), Paris, France.
In vitro experiments were performed using human peripheral blood mononuclear cells (PBMCs) isolated by density centrifugation from peripheral blood leukocyte separation medium, lymphoprep (Stemcell Technologies).
PBMCs were cultured in RPMI 1640 (Sigma-Aldrich, MO, USA) containing 10% heat-inactivated fetal bovine serum (Sigma-Aldrich, MO, USA) at 37° C./5% CO2.
2) The PBMCs used herein were prepared as described in part A “immune cells preparation”, section 2) above. PBMCs were seeded at 4.10^6/mL. […] Cells were then stimulated with the TLR7/8 agonist resiquimod—R848 (Sigma-Aldrich, MO, USA) at 5 μg/mL.
2) To quantify the secretion of functional IFN, a biological assay based on a stable cell line where luciferase reporter gene is controlled by five Interferon-Stimulated Response Elements (twINNE cell line) was used. It is important to note that the twINNE cell line is the same as the above mentioned STING-37 cell line but with constitutively expressed nanoluciferase. First, supernatants of R848-stimulated PBMCs (see part B, section 2) above) were harvested after 24 h of stimulation and frozen at −20° C. for storage. Then, supernatants were dispensed in culture wells of a 96-well plate containing 35.103 twINNE cells per well in Dulbecco's Modified Eagle's Medium supplemented with 10% Foetal Bovine Serum, 100 U/mL Penicillin and 100 μg/mL Streptomycin (1% Pen-Strep) and 1 mM glutamine (Sigma-Aldrich, MO, USA) at 37° C./5% […]. After 24 h of culture, luciferase activity was determined by adding 60 μL of Bright-Go reagents (Promega, Wisconsin, USA) to culture wells and measuring bioluminescence with EnSpire Multimode Plate Reader (PerkinElmer, Massachusetts, USA). When stated, for IC50 calculation, dose-response curves fitted using the nonlin fit (variable slope) analysis in GraphPad Prism software (GraphPad Software, California, USA).

melting point [°C] | Structure (SMILES) | IC50 [1] [µM]
> 250 | CC1(C)CN2C(CSC3=NCC(C)(C)N3)=CSC2=N1 (as salt: hydrochloride) [Example 2, 3-(((5,5-dimethyl-4,5-dihydro-1H-imidazol-2-yl)thio)methyl)-6,6-dimethyl-5,6-dihydroimidazo[2,1-b]thiazole dihydrochloride] | –
65 to 75 | CC1(C)CN2C(CSC3=N[C@@H]4CCCC[C@H]4N3)=CSC2=N1 (as salt: hydrochloride) [Example 3, 3-((((3aR,7aR)-3a,4,5,6,7a-hexahydro-1H-benzo[d]imidazol-2-yl)thio)methyl)-6,6-dimethyl-5,6-dihydroimidazo[2,1-b]thiazole dihydrochloride] | –
– | CC1(C)CN=C(SCCCc2cccnc2)N1 [Example 31, 3-(3-((5,5-dimethyl-4,5-dihydro-1H-imidazol-2-yl)thio)propyl)pyridine dihydrochloride] | ≥ 31
– | CC1(C)CN=C(SCc2cccnc2)N1 [Example 32, 3-(((5,5-dimethyl-4,5-dihydro-1H-imidazol-2-yl)thio)methyl)pyridine dihydrochloride] | ≥ 31
– | CC1(C)CN=C(SCC2=CSC3=NC4(CC4)CN23)N1 [Example 33, dihydrochloride] | ≥ 31
– | CC1(C)CN=C2SC=C(CSC3=NCC(C)(C)N3)N2C1 [Example 34, 3-(((5,5-dimethyl-4,5-dihydro-1H-imidazol-2-yl)thio)methyl)-6,6-dimethyl-6,7-dihydro-5H-thiazolo[3,2-a]pyrimidine dihydrochloride] | ≥ 31
– | C1=C(CSC2=NCCCN2)N2CCN=C2S1 [Example 35, 3-(((1,4,5,6-tetrahydropyrimidin-2-yl)thio)methyl)-5,6-dihydroimidazo[2,1-b]thiazole dihydrochloride] | ≥ 31
– | C1=C(CSC2=NCCCN2)N2CCCCN=C2S1 [Example 37, 3-(((1,4,5,6-tetrahydropyrimidin-2-yl)thio)methyl)-5,6,7,8-tetrahydrothiazolo[3,2-a][1,3]diazepine dihydrochloride] | ≥ 31
– | CC1(C)CN=C(SCCCn2ccnc2)N1 [Example 38, 1-(3-((5,5-dimethyl-4,5-dihydro-1H-imidazol-2-yl)thio)propyl)-1H-imidazole dihydrochloride] | ≥ 31
– | CC1(C)CN2C(CSC3=NCC4(CCCCC4)N3)=CSC2=N1 [Example 39, 3-(((1,3-diazaspiro[4.5]dec-2-en-2-yl)thio)methyl)-6,6-dimethyl-5,6-dihydroimidazo[2,1-b]thiazole dihydrochloride] | 10 to 31
– | CC1(C)CN2C(CSC3=NCC4CCCCC4N3)=CSC2=N1 (centres unmarked) [Example 40, 6,6-dimethyl-3-(((1,4,4a,5,6,7,8,8a-octahydroquinazolin-2-yl)thio)methyl)-5,6-dihydroimidazo[2,1-b]thiazole dihydrochloride] | ≥ 31
– | CC1(C)CN=C(SCCc2cccc3ncccc23)N1 [Example 41, 5-(2-((5,5-dimethyl-4,5-dihydro-1H-imidazol-2-yl)thio)ethyl)quinoline dihydrochloride] | ≥ 31
– | CC1(C)CN=C(SCC2=CSC3=NC4(CCCCC4)CN23)N1 [Example 42, 3′-(((5,5-dimethyl-4,5-dihydro-1H-imidazol-2-yl)thio)methyl)-5′H-spiro[cyclohexane-1,6′-imidazo[2,1-b]thiazole] dihydrochloride] | 10 to 31
– | CC1(C)CN=C(SCC2=CSC3=NC4CCCCC4CN23)N1 (centres unmarked) [Example 43, 3-(((5,5-dimethyl-4,5-dihydro-1H-imidazol-2-yl)thio)methyl)-5a,6,7,8,9,9a-hexahydro-5H-thiazolo[2,3-b]quinazoline dihydrochloride] | 10 to 31
– | C1=C(CSC2=N[C@@H]3CCCC[C@H]3N2)N2CCN=C2S1 [Example 44, 3-((((3aR,7aR)-3a,4,5,6,7,7a-hexahydro-1H-benzo[d]imidazol-2-yl)thio)methyl)-5,6-dihydroimidazo[2,1-b]thiazole dihydrochloride] | ≤ 10
– | C1=C(CSC2=N[C@@H]3CCCC[C@H]3N2)N2CCCN=C2S1 [Example 45, 3-((((3aR,7aR)-3a,4,5,6,7,7a-hexahydro-1H-benzo[d]imidazol-2-yl)thio)methyl)-6,7-dihydro-5H-thiazolo[3,2-a]pyrimidine dihydrochloride] | ≥ 31

melting point [°C] | Structure (SMILES) | IC50 [1] [µM]
– | C1=C(CSC2=N[C@@H]3CCCC[C@H]3N2)N2CCCCN=C2S1 [Example 46, 3-((((3aR,7aR)-3a,4,5,6,7,7a-hexahydro-1H-benzo[d]imidazol-2-yl)thio)methyl)-5,6,7,8-tetrahydrothiazolo[3,2-a][1,3]diazepine dihydrochloride] | ≥ 31
– | CC1(C)CN=C(SCCn2ccnc2)N1 [Example 47, 1-(2-((5,5-dimethyl-4,5-dihydro-1H-imidazol-2-yl)thio)ethyl)-1H-imidazole dihydrochloride] | ≥ 31
– | C1=C(CSC2=NCC(Cc3ccccc3)N2)N2CCCN=C2S1 (centres unmarked) [Example 48, 3-(((5-benzyl-4,5-dihydro-1H-imidazol-2-yl)thio)methyl)-6,7-dihydro-5H-thiazolo[3,2-a]pyrimidine dihydrochloride] | ≤ 10
– | CC(C)C1CN=C(SCC2=CSC3=NC(C)(C)CN23)N1 (centres unmarked) [Example 49, 3-(((5-isopropyl-4,5-dihydro-1H-imidazol-2-yl)thio)methyl)-6,6-dimethyl-5,6-dihydroimidazo[2,1-b]thiazole dihydrochloride] | 10 to 31
– | CC1(C)CN=C(SCC2=CSC3=NC(c4ccccc4)CN23)N1 (centres unmarked) [Example 50, 3-(((5,5-dimethyl-4,5-dihydro-1H-imidazol-2-yl)thio)methyl)-6-phenyl-5,6-dihydroimidazo[2,1-b]thiazole dihydrochloride] | 10 to 31
– | CCCCC1CN=C(SCC2=CSC3=NC(Cc4ccccc4)CN23)N1 (centres unmarked) [Example 51, 6-benzyl-3-(((5-butyl-4,5-dihydro-1H-imidazol-2-yl)thio)methyl)-5,6-dihydroinidazo[2,1-b]thiazole dihydrochloride] | ≤ 10
– | CC(C)C1CN2C(CSC3=NCC(C)(C)N3)=CSC2=N1 (centres unmarked) [Example 52, 3-(((5,5-dimethyl-4,5-dihydro-1H-imidazol-2-yl)thio)methyl)-6-isopropyl-5,6-dihydroimidazo[2,1-b]thiazole dihydrochloride] | 10 to 31
– | CC1(C)CN2C(CSC3=NCC(c4ccccc4)N3)=CSC2=N1 (centres unmarked) [Example 53, 6,6-dimethyl-3-(((4-phenyl-4,5-dihydro-1H-imidazol-2-yl)thio)methyl)-5,6-dihydroimidazo[2,1-b]thiazole dihydrochloride] | ≤ 10
– | CN1CCCN=C1SCC1=CSC2=NC(C)(C)CN12 [Example 57, 6,6-dimethyl-3-(((1-methyl-1,4,5,6-tetrahydropyrimidin-2-yl)thio)methyl)-5,6-dihydroimidazo[2,1-b]thiazole dihydrochloride] | ≥ 31
– | CC(C)[C@@H]1N=C(SCC2=CSC3=NC(C)(C)CN23)N[C@H]1C(C)C [Example 58, 3-((((4S,5S)-4,5-diisopropyl-4,5-dihydro-1H-imidazol-2-yl)thio)methyl)-6,6-dimethyl-5,6-dihydroimidazo[2,1-b]thiazole dihydrochloride] | ≥ 31
– | C1=C(CSC2=NCC(Cc3ccccc3)N2)N2CC(Cc3ccccc3)N=C2S1 (centres unmarked) [Example 60, 6-benzyl-3-(((5-benzyl-4,5-dihydro-1H-imidazol-2-yl)thio)methyl)-5,6-dihydroimidazo[2,1-b]thiazole dihydrochloride] | ≤ 10
– | C1=C(CSC2=N[C@@H]3CCCC[C@H]3N2)N2CC(Cc3ccccc3)N=C2S1 (stereo partly drawn) [Example 61, 6-benzyl-3-((((3aR,7aR)-3a,4,5,6,7,7a-hexahydro-1H-benzo[d]imidazol-2-yl)thio)methyl)-5,6-dihydroimidazo[2,1-b]thiazole dihydrochloride] | ≤ 10
– | c1ccc(CC2CN=C(SCCc3cccnc3)N2)cc1 (centres unmarked) [Example 65, 3-(2-((5-benzyl-4,5-dihydro-1H-imidazol-2-yl)thio)ethyl)pyridine dihydrochloride] | ≥ 31
– | CC1(C)CN2C(=N1)SC(I)=C2CSC1=NCC(C)(C)N1 [Example 66, 3-(((5,5-dimethyl-4,5-dihydro-1H-imidazol-2-yl)thio)methyl)-2-iodo-6,6-dimethyl-5,6-dihydroimidazo[2,1-b]thiazole dihydrochloride] | ≤ 10
– | c1ccc(CC2CN=C(SCCCc3ccc4c(n3)NCCC4)N2)cc1 (centres unmarked) [Example 68, 7-(3-((5-benzyl-4,5-dihydro-1H-imidazol-2-yl)thio)propyl)-1,2,3,4-tetrahydro-1,8-naphthyridine dihydrochloride] | 10 to 31
– | CC1(C)CN2C(=N1)SCC2SC1=NCC(C)(C)N1 (centres unmarked) [Example 70, 3-((5,5-dimethyl-4,5-dihydro-1H-imidazol-2-yl)thio)-6,6-dimethyl-2,3,5,6-tetrahydroimidazo[2,1-b]thiazole dihydrochloride] | ≥ 31

From US20220144853A1, “IMIDAZOLINE DERIVATIVES AS CXCR4 MODULATORS” (Université de Paris, priority 2019, published 2022)
